From patent US20230374038A1, “MODULATORS OF CYSTIC FIBROSIS TRANSMEMBRANE CONDUCTANCE REGULATOR” (VERTEX PHARMACEUTICALS INCORPORATED, priority 2020, published 2023)

Biological target: CFTR (Homo sapiens, UniProt P13569)
Assay: Membrane Potential Dye, Enteroid Assay B
Assay type: cell-based
Conditions: for EC50: read-out: Ent. B EC50
How it was run: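 Membrane-potential fluorescence read over 15 min after chloride-free stimulation (forskolin 10 μM, IBMX 100 μM, Compound III 300 nM), with CaCCinh-A01 and Chicago Sky Blue present. Enteroids had 18-24 h compound exposure at 37 °C; activity given as % of the triple-combination corrector/potentiator reference response.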

Sequence of CFTR (P13569 with tags, fused parts or gaps DEL508-508): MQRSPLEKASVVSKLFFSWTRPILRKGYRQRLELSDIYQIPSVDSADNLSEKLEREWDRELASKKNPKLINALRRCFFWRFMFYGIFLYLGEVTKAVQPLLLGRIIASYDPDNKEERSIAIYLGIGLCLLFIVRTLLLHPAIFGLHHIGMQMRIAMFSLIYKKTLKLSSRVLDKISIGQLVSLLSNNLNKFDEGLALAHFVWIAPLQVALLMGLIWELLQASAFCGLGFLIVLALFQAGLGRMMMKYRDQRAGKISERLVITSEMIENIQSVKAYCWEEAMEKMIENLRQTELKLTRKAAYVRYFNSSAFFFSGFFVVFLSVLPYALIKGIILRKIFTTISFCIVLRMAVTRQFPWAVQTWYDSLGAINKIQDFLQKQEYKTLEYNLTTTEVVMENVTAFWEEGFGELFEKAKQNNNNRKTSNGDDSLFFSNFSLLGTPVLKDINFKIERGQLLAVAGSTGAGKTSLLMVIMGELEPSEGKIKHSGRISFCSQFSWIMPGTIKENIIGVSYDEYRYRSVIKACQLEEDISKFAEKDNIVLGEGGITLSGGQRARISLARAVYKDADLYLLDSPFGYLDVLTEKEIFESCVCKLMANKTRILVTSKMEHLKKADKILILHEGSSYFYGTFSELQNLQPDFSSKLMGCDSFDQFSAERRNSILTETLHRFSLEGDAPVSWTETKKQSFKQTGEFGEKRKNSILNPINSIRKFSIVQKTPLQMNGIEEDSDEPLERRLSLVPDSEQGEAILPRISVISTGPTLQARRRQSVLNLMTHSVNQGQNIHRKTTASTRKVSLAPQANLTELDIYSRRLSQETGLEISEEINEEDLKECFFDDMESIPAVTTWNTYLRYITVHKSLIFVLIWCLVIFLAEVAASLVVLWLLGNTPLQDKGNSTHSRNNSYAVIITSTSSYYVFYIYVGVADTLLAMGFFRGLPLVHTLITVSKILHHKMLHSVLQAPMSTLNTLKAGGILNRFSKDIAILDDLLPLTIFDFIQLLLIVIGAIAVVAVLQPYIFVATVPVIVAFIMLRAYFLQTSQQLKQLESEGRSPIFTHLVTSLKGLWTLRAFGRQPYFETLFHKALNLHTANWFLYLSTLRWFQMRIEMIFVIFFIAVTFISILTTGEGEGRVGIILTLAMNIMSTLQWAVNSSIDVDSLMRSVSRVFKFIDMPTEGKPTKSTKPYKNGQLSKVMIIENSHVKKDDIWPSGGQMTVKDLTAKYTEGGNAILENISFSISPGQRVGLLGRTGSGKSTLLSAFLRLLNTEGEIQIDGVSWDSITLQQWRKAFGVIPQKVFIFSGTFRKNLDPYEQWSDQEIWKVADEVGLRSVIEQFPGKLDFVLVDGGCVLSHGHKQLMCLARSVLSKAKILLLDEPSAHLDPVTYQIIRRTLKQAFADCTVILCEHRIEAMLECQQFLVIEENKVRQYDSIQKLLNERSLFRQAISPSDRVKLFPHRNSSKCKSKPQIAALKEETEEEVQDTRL

| Structure (SMILES) | Ent. B Max Activity | EC50 |
| --- | --- | --- |
| Cc1cccc(C)c1-c1nc2nc(c1C)OCCN(C1CC3(CC(NC(=O)OC(C)(C)C)C3)C1)C(=O)c1cccc(c1)S(=O)(=O)N2 (stereo not drawn) [Compound 37] | ++ (++ is 30-60%) | < 1000 nM |
| Cc1cccc(C)c1-c1nc2nc(c1C)OC[C@@H](CC(C)C)N([C@H]1C[C@@]3(C[C@H](NC(=O)OC(C)C)C3)C1)C(=O)c1cccc(c1)S(=O)(=O)N2 (single isomer, unassigned) [Compound 51] | +++ (+++ is >60%) | < 1000 nM |
| Cc1cccc(C)c1-c1nc2nc(c1C)O[C@@H]1CN(C3CC4(CCCCC4)C3)C[C@H]1NC(=O)c1cccc(c1)S(=O)(=O)N2 [Compound 104, (3R,7R)-19-(2,6-dimethylphenyl)-20-methyl-5-{spiro[3.5]nonan-2-yl}-2-oxa-15λ^6-thia-5,8,16,18,21-pentaazatetracyclo[15.3.1.110,14.03,7]docosa-1(21),10,12,14(22),17,19-hexaene-9,15,15-trione] | +++ (+++ is >60%) | < 1000 nM |
| Cc1cccc(C)c1-c1nc2nc(c1C)OC[C@@H](CC1(C(F)(F)F)CC1)N(C1CC3(CC(CO)C3)C1)C(=O)c1cccc(c1)S(=O)(=O)N2 (stereo partly drawn) [Compound 81] | +++ (+++ is >60%) | < 1000 nM |
| Cc1cccc(C)c1-c1nc2nc(c1C)OC[C@@H](CC1(C(F)(F)F)CC1)N(C1CC3(CC(N)C3)C1)C(=O)c1cccc(c1)S(=O)(=O)N2 (stereo partly drawn) [Compound 92] | +++ (+++ is >60%) | < 1000 nM |
| COCCN1CCC2(CC1)CC(N1C(=O)c3cccc(c3)S(=O)(=O)Nc3nc(c(C)c(-c4c(C)cccc4C)n3)OC[C@H]1CC(C)C)C2 [Compound 55, (11R)-6-(2,6-Dimethylphenyl)-11-isobutyl-12-[7-(2-methoxyethyl)-7-azaspiro[3.5]nonan-2-yl]-7-methyl-2,2-dioxo-9-oxa-2λ^6-thia-3,5,12,19-tetrazatricyclo[12.3.1.14,8]nonadeca-1(18),4(19),5,7,14,16-hexaen-13-one] | +++ (+++ is >60%) | < 1000 nM |
| Cc1cccc(C)c1-c1nc2nc(c1C)OC[C@@H](CC(C)(C)C)N(C1CC3(CC(NC(=O)OC(C)C)C3)C1)C(=O)c1cccc(c1)S(=O)(=O)N2 (single isomer, unassigned) [Compound 65] | +++ (+++ is >60%) | < 1000 nM |
| Cc1cccc(C)c1-c1nc2nc(c1C)OC[C@@H](CC(C)(C)C)N(C1CC3(CC(N)C3)C1)C(=O)c1cccc(c1)S(=O)(=O)N2 (single isomer, unassigned) [Compound 63] | +++ (+++ is >60%) | < 1000 nM |
| Cc1cccc(C)c1-c1nc2nc(c1C)OC[C@@H](CC1(C(F)(F)F)CC1)N(C1CC3(CC(NC(=O)OC(C)(C)C)C3)C1)C(=O)c1cccc(c1)S(=O)(=O)N2 (stereo in doubt) [Compound 97] | +++ (+++ is >60%) | < 1000 nM |
| Cc1cccc(C)c1-c1nc2nc(c1C)OC[C@@H](CC(C)C)N([C@H]1C[C@@]3(C[C@H](N(C)C)C3)C1)C(=O)c1cccc(c1)S(=O)(=O)N2 (single isomer, unassigned) [Compound 53] | +++ (+++ is >60%) | < 1000 nM |
| COC(=O)NC1CC2(C1)CC(N1C(=O)c3cccc(c3)S(=O)(=O)Nc3nc(c(C)c(-c4c(C)cccc4C)n3)OC[C@H]1CC(C)(C)C)C2 (single isomer, unassigned) [Compound 64] | +++ (+++ is >60%) | < 1000 nM |
| Cc1cccc(C)c1-c1nc2nc(c1C)OC[C@@H](CC(C)(C)C)N(C1CC3(CC(N)C3)C1)C(=O)c1cccc(c1)S(=O)(=O)N2 (stereo partly drawn) [Compound 96] | +++ (+++ is >60%) | < 1000 nM |
| Cc1cccc(C)c1-c1nc2nc(c1/C=C/C(C)(C)C)O[C@H](C)CNC(=O)c1cccc(c1)S(=O)(=O)N2 [Compound 121, (10R)-7-[(E)-3,3-Dimethylbut-1-enyl]-6-(2,6-dimethylphenyl)-10-methyl-2,2-dioxo-9-oxa-2λ^6-thia-3,5,12,19-tetrazatricyclo[12.3.1.14,8]nonadeca-1(18),4(19),5,7,14,16-hexaen-13-one] | +++ (+++ is >60%) | < 1000 nM |
| COC1CC(N2C(=O)c3cccc(c3)S(=O)(=O)Nc3nc(c(C)c(-c4c(C)cccc4C)n3)OC[C@H]2CC2(C(F)(F)F)CC2)C1 (stereo partly drawn) [Compound 99] | +++ (+++ is >60%) | < 1000 nM |
| COC1CC(N2C(=O)c3cccc(c3)S(=O)(=O)Nc3nc(c(C)c(-c4c(C)cccc4C)n3)OC[C@H]2CC(C)(C)C)C1 (stereo partly drawn) [Compound 83] | +++ (+++ is >60%) | < 1000 nM |
| Cc1cccc(C)c1-c1nc2nc(c1C)OC[C@@H](CC(C)(C)C)N(C1CC3(CC(CO)C3)C1)C(=O)c1cccc(c1)S(=O)(=O)N2 (stereo in doubt) [Compound 78] | +++ (+++ is >60%) | < 1000 nM |
| COC(=O)NC1CC2(C1)CC(N1C(=O)c3cccc(c3)S(=O)(=O)Nc3nc(c(C)c(-c4c(C)cccc4C)n3)OC[C@H]1CC1(C(F)(F)F)CC1)C2 (stereo in doubt) [Compound 86] | +++ (+++ is >60%) | < 1000 nM |
| Cc1cccc(C)c1-c1nc2nc(c1C)OC[C@@H](CC1(C(F)(F)F)CC1)N(C1CC3(CC(N(C)C)C3)C1)C(=O)c1cccc(c1)S(=O)(=O)N2 (stereo in doubt) [Compound 90] | +++ (+++ is >60%) | < 1000 nM |
| Cc1cccc(C)c1-c1nc2nc(c1C)OC[C@@H](CC(C)C)N([C@H]1C[C@@H](OC(C)C)C1)C(=O)c1cccc(c1)S(=O)(=O)N2 (single isomer, unassigned) [Compound 48] | +++ (+++ is >60%) | < 1000 nM |
| Cc1cccc(C)c1-c1nc2nc(c1C)OC[C@@H](CC(C)(C)O)N(CCCC(C)(C)O)C(=O)c1cccc(c1)S(=O)(=O)N2 [Compound 110] | + (+ is <30%) |  |
| Cc1cccc(C)c1-c1nc2nc(c1C)OC[C@@H](CC(C)(C)O)NC(=O)c1cccc(c1)S(=O)(=O)N2 [Compound 105, (11R)-6-(2,6-Dimethylphenyl)-11-(2-hydroxy-2-methyl-propyl)-7-methyl-2,2-dioxo-9-oxa-2λ^6-thia-3,5,12,19-tetrazatricyclo[12.3.1.14,8]nonadeca-1(18),4(19),5,7,14,16-hexaen-13-one] | +++ (+++ is >60%) | 3000 to 30000 nM |
| Cc1cccc(C)c1-c1nc2nc(c1C)OC[C@@H](CC1(C(F)(F)F)CC1)N(C1CC3(CC(N)C3)C1)C(=O)c1cccc(c1)S(=O)(=O)N2 (stereo partly drawn) [Compound 93] | +++ (+++ is >60%) | < 1000 nM |

The next lines start with the values.

| Ent. B Max Activity | EC50 | Structure (SMILES) |
| --- | --- | --- |
| +++ (+++ is >60%) | < 1000 nM | COC(=O)N1CCC2(CC1)CC(N1C(=O)c3cccc(c3)S(=O)(=O)Nc3nc(c(C)c(-c4c(C)cccc4C)n3)OC[C@H]1CC(C)(C)C(F)(F)F)C2 [Compound 183] |
| + (+ is <30%) | 3000 to 30000 nM | Cc1cccc(C)c1-c1nc2nc(c1-c1ccccn1)O[C@H](C)CNC(=O)c1cccc(c1)S(=O)(=O)N2 [Compound 154] |
| + (+ is <30%) |  | Cc1cccc(C)c1-c1nc2nc(c1-c1cccnc1)O[C@H](C)CNC(=O)c1cccc(c1)S(=O)(=O)N2 [Compound 133] |
| + (+ is <30%) |  | Cc1cccc(C)c1-c1nc2nc(c1-c1ccncc1)O[C@H](C)CNC(=O)c1cccc(c1)S(=O)(=O)N2 [Compound 132] |
| +++ (+++ is >60%) | < 1000 nM | COc1ccccc1-c1c2nc(nc1-c1c(C)cccc1C)NS(=O)(=O)c1cccc(c1)C(=O)NC[C@@H](C)O2 [Compound 153] |
| +++ (+++ is >60%) | < 1000 nM | COc1ccc(-c2c3nc(nc2-c2c(C)cccc2C)NS(=O)(=O)c2cccc(c2)C(=O)N[C@H](C)CO3)cc1 [Compound 144] |
| ++ (++ is 30-60%) | 3000 to 30000 nM | Cc1cccc(C)c1-c1nc2nc(c1C1=CCOCC1)O[C@H](C)CNC(=O)c1cccc(c1)S(=O)(=O)N2 [Compound 152] |
| ++ (++ is 30-60%) | < 1000 nM | Cc1cccc(C)c1-c1nc2nc(c1F)OC[C@@H](CC(C)C)N(C1CC3(CCNCC3)C1)C(=O)c1cccc(c1)S(=O)(=O)N2 [Compound 186] |
| + (+ is <30%) |  | Cc1cccc(C)c1-c1nc2nc(c1C(=O)O)OC[C@@H](CC(C)C)N(C1CC3(CC3)C1)C(=O)c1cccc(c1)S(=O)(=O)N2 [Compound 168, (11R)-6-(2,6-Dimethylphenyl)-11-isobutyl-2,2,13-trioxo-12-spiro[2.3]hexan-5-yl-9-oxa-2λ^6-thia-3,5,12,19-tetrazatricyclo[12.3.1.14,8]nonadeca-1(18),4(19),5,7,14,16-hexaene-7-carboxylic acid] |
| +++ (+++ is >60%) | < 1000 nM | COc1ccc(-c2c3nc(nc2-c2c(C)cccc2C)NS(=O)(=O)c2cccc(c2)C(=O)NC[C@@H](C)O3)cc1 [Compound 130] |
| + (+ is <30%) |  | Cc1cccc(C)c1-c1nc2nc(c1-c1cccnc1)OC[C@@H](C)NC(=O)c1cccc(c1)S(=O)(=O)N2 [Compound 143] |
| ++ (++ is 30-60%) | < 1000 nM | Cc1cccc(C)c1-c1nc2nc(c1/C=C/C(C)(C)C)OC[C@@H](C)NC(=O)c1cccc(c1)S(=O)(=O)N2 [Compound 138] |
| ++ (++ is 30-60%) | < 1000 nM | Cc1cccc(C)c1-c1nc2nc(c1C)O[C@H](C)CN(C1CC3(CC(NC(=O)OC(C)(C)C)C3)C1)C(=O)c1cccc(c1)S(=O)(=O)N2 (stereo partly drawn) [Compound 201] |
| ++ (++ is 30-60%) | < 1000 nM | Cc1cccc(C)c1-c1nc2nc(c1C)OC(c1ccc(CC3(C(F)(F)F)CC3)cn1)CN(C)C(=O)c1cccc(c1)S(=O)(=O)N2 (stereo not drawn) [Compound 204] |
| ++ (++ is 30-60%) | 1000 to 3000 nM | Cc1cccc(C)c1-c1nc2nc(c1C1CCN(C(=O)OC(C)(C)C)CC1)O[C@H](C)CNC(=O)c1cccc(c1)S(=O)(=O)N2 [Compound 150] |
